# Biological target: α4β7 integrin (Homo sapiens (Human), UniProt P13612+P26010)
# Experiment: α4β7 Integrin Cell Capture Assay
# Type: cell-based
# [1] = Table 2, capture of α4β7 expressing RPM18866 cells on MadCAM-1 extracellular domain-coated plate
# [2] = RPMI8866 cells captured on MadCAM-1 extracellular domain-coated plate
# [3] = Table 1, capture of α4β7 expressing RPM18866 cells on MadCAM-1 extracellular domain-coated plate
# Chain of α4β7 integrin (P13612 34-1032): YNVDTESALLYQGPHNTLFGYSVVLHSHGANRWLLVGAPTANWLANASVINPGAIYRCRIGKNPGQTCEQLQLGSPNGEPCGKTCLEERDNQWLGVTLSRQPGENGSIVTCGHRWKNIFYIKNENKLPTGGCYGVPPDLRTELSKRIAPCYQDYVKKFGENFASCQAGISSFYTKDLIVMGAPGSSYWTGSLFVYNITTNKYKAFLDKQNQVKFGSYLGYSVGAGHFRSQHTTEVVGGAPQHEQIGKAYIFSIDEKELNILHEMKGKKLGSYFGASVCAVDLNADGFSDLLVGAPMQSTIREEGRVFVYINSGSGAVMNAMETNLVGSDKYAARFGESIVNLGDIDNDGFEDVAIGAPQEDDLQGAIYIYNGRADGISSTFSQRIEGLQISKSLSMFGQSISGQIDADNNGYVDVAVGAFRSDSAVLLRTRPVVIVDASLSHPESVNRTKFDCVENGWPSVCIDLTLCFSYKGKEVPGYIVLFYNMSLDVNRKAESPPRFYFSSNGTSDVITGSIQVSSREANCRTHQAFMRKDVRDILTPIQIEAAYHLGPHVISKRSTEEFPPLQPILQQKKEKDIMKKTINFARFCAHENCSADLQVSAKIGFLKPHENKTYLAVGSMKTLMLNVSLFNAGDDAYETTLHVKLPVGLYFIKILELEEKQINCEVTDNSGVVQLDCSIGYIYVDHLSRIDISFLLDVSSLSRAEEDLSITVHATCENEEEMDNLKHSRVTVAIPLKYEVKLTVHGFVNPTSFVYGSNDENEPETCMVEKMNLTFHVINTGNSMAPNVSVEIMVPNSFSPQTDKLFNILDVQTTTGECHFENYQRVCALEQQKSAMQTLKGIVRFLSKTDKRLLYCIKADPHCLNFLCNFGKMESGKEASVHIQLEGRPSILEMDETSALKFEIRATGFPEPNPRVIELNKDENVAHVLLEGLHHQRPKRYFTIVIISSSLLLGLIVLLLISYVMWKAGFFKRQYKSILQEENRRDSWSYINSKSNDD
# Chain of α4β7 integrin (P26010 20-798): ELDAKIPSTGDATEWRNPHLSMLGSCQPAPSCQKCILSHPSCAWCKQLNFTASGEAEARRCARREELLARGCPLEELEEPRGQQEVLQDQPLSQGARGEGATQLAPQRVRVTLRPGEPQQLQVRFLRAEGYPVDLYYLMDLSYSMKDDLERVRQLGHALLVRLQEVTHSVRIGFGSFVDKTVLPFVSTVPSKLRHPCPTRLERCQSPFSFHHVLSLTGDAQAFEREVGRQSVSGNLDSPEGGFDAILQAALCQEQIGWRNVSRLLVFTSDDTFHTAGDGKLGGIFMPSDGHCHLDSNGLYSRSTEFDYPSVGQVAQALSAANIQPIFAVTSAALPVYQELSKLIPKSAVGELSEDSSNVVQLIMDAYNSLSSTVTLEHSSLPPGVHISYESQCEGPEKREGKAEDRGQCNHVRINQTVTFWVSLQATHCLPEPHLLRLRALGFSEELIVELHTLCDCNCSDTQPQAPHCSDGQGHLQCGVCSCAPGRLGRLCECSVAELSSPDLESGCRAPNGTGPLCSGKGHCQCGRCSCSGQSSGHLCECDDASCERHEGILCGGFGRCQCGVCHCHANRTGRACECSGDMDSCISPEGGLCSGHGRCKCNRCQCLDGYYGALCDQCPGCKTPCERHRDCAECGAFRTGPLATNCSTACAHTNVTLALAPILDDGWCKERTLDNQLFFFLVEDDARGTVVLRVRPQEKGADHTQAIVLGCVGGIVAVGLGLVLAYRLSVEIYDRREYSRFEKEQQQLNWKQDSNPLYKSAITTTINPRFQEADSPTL
smiles,measurement,setting,value
Cc1c(-c2ccc(C[C@H](NC(=O)c3c(F)cc(CS(=O)(=O)c4ccccc4)cc3F)C(=O)O)c3cccnc23)c(=O)n(C)c(=O)n1C [Example 203],EC50,[1],1.6 nM
N#Cc1ccc(-c2ccc(C[C@H](NC(=O)c3c(F)cc(NC(c4ccccc4)C(F)F)cc3F)C(=O)O)c3cccnc23)c(Cl)c1 (stereo partly shown) [Example 326],EC50,[1],19.1 nM
"Cc1cc(N2CCOC[C@@H]2C(F)(F)F)cc(F)c1C(=O)N[C@@H](Cc1ccc(-n2c(=O)c3ccncc3n(C)c2=O)c2ncccc12)C(=O)O (atropisomer, axis not shown) [Example 408, (S)-2-(2-fluoro-6-methyl-4-((R)-3-(trifluoromethyl)morpholino)benzamido)-3-(8-(1-methyl-2,4-dioxo-1,4-dihydropyrido[3,4-d]pyrimidin-3(2H)-yl)quinolin-5-yl)propanoic acid]",EC50,[2],0.049 nM
Cc1ccnc(-c2ccc(C[C@H](NC(=O)c3c(F)cc(N4CCOC[C@@H]4C(F)(F)F)cc3F)C(=O)O)c3cccnc23)n1 [Example 263],EC50,[1],4 nM
CCc1nc(-c2ccc(C[C@H](NC(=O)c3c(F)cc(N[C@H](CC)C(F)(F)F)cc3F)C(=O)O)c3cccnc23)c(=O)n(C)c1CC [Example 176],EC50,[1],0.9 nM
Cc1cc(N2CCOC[C@@H]2C(F)(F)F)cc(F)c1C(=O)N[C@@H](Cc1ccc(-c2cc(N(C)C)c(C)n(C)c2=O)c2ncccc12)C(=O)O [Example 450],EC50,[2],1.02 nM
Cn1c(=O)c(-c2ccc(C[C@H](NC(=O)c3c(F)cc(NS(=O)(=O)C(F)F)cc3F)C(=O)O)c3cccnc23)cc2ccccc21 [Example 153],EC50,[1],0.2 nM
CC[C@@H](N(c1cc(F)c(C(=O)N[C@@H](Cc2ccc(-c3c(C(F)(F)F)cc(C)n(C)c3=O)c3ncccc23)C(=O)O)c(F)c1)C1CC1)C(F)(F)F [Example 172],EC50,[1],0.5 nM
N#Cc1ccc(-c2ccc(C[C@H](NC(=O)c3c(F)cccc3OC(F)F)C(=O)O)c3cccnc23)c(Cl)c1 [Example 222],EC50,[1],48.3 nM
CC[C@@H](Nc1cc(F)c(C(=O)N[C@@H](Cc2ccc(-c3nccc(C)c3N(C)C)c3ncccc23)C(=O)O)c(F)c1)C(F)(F)F [Example 300],EC50,[1],8.4 nM
CC[C@@H](Nc1cc(F)c(C(=O)N[C@@H](Cc2ccc(-c3cn(C)c(=O)cc3C(F)(F)F)c3ncccc23)C(=O)O)c(F)c1)C(F)(F)F [Example 296],EC50,[1],7.7 nM
"N#Cc1ccc(-c2ccc(C[C@H](NC(=O)c3c(F)cc(NS(=O)(=O)c4ccc(-c5ccnc(F)c5)cc4)cc3F)C(=O)O)c3cccnc23)c(Cl)c1 [Example 47, (S)-3-(8-(2-chloro-4-cyanophenyl)quinolin-5-yl)-2-(2,6-difluoro-4-((4-(2-fluoropyridin-4-yl)phenyl)sulfonamido)benzamido)propanoic acid]",EC50,[3],2.4 nM
N#Cc1ccc(-c2ccc(C[C@H](NC(=O)c3c(F)cc(NC4(C(F)(F)F)CC4)cc3F)C(=O)O)c3cccnc23)c(Cl)c1 [Example 229],EC50,[1],60.5 nM
O=C(N[C@@H](Cc1ccc(-c2ncc3ccc(C4CC4)cc3c2C(F)(F)F)c2ncccc12)C(=O)O)c1c(Cl)cccc1Cl [Example 319],EC50,[1],14.4 nM
Cc1cc(N2CCOC[C@H]2C(F)(F)F)cc(F)c1C(=O)N[C@@H](Cc1ccc(-n2c(=O)c3ccncc3n(C)c2=O)c2ncccc12)C(=O)O [Example 409],EC50,[2],0.401 nM
Cc1cc(N2CCOC[C@@H]2C(F)(F)F)cc(F)c1C(=O)N[C@@H](Cc1ccc(-n2c(=O)c3cc(F)c(-n4ccnc4)cc3n(C)c2=O)c2ncccc12)C(=O)O [Example 418],EC50,[2],0.104 nM
CC[C@@H](Nc1cc(F)c(C(=O)N[C@@H](Cc2ccc(-c3c(C)c(F)cn(C)c3=O)c3ncccc23)C(=O)O)c(F)c1)C(F)(F)F [Example 199],EC50,[1],1.5 nM
CC1(O)CCN(c2cc(F)c(C(=O)N[C@@H](Cc3ccc(-c4ccc(C#N)cc4Cl)c4ncccc34)C(=O)O)c(F)c2)CC1 [Example 216],EC50,[1],31 nM
"COc1cc(Cl)c(Cl)cc1-c1ccc(C[C@H](NC(=O)c2c(F)cccc2F)C(=O)O)c2cccnc12 [Example 5, (S)-3-(8-(4,5-dichloro-2-methoxyphenyl)quinolin-5-yl)-2-(2,6-difluorobenzamido)propanoic acid]",EC50,[3],17.4 nM
"COc1cc(C)nc(-c2ccc(C[C@H](NC(=O)c3c(F)cc(N4CCOC[C@@H]4C(F)(F)F)cc3F)C(=O)O)c3cccnc23)n1 [Example 99, (S)-2-(2,6-difluoro-4-((R)-3-(trifluoromethyl)morpholino)benzamido)-3-(8-(4-methoxy-6-methylpyrimidin-2-yl)quinolin-5-yl)propanoic acid]",EC50,[3],11.2 nM
"Cc1cc(C(F)(F)F)c(-c2ccc(C[C@H](NC(=O)c3c(F)cc(N4CCN(C)C[C@@H]4C(F)(F)F)cc3F)C(=O)O)c3cccnc23)c(=O)n1C (atropisomer, axis not shown) [Example 486]",EC50,[2],1.31 nM
Cc1cnc(-c2ccc(C[C@H](NC(=O)c3c(C)cc(N4CCOC[C@@H]4C(F)(F)F)cc3F)C(=O)O)c3cccnc23)nc1C [Example 482],EC50,[2],1.5 nM
N#Cc1cc(Cl)c(-c2ccc(C[C@H](NC(=O)c3c(Cl)cccc3Cl)C(=O)O)c3cc(F)cnc23)c(Cl)c1 [Example 304],EC50,[1],9.6 nM
"N#Cc1ccc(-c2ccc(C[C@H](NC(=O)c3c(F)cc(N[C@H](c4ccccc4)C(F)(F)F)cc3F)C(=O)O)c3cccnc23)c(Cl)c1 [Example 86, (S)-3-(8-(2-chloro-4-cyanophenyl)quinolin-5-yl)-2-(2,6-difluoro-4-(((R)-2,2,2-trifluoro-1-phenylethyl)amino)benzamido)propanoic acid]",EC50,[3],8.3 nM
Cc1cc(C(F)(F)F)c(-c2ccc(C[C@H](NC(=O)c3c(F)cc(N4CCCOCC4)cc3F)C(=O)O)c3cccnc23)c(=O)n1C [Example 441],EC50,[2],0.412 nM
Cc1cc(C(F)(F)F)c(-c2ccc(C[C@H](NC(=O)c3c(F)cc(N4C[C@@H](C)OC[C@H]4C)cc3F)C(=O)O)c3cccnc23)c(=O)n1C [Example 249],EC50,[1],3 nM
"N#Cc1ccc(-c2ccc(C[C@H](NC(=O)c3c(F)cc(CS(=O)(=O)c4ccccc4)cc3F)C(=O)O)c3cccnc23)c(Cl)c1 [Example 49, (S)-3-(8-(2-chloro-4-cyanophenyl)quinolin-5-yl)-2-(2,6-difluoro-4-((phenylsulfonyl)methyl)benzamido)propanoic acid]",EC50,[3],33.7 nM
CCC(CC)Nc1cc(F)c(C(=O)N[C@@H](Cc2ccc(-c3c(C(F)(F)F)cc(C)n(C)c3=O)c3ncccc23)C(=O)O)c(F)c1 [Example 272],EC50,[1],4.5 nM
N#Cc1ccc(-c2ccc(C[C@H](NC(=O)c3c(F)cc(N[C@H](C4CCC4)C(F)(F)F)cc3F)C(=O)O)c3cccnc23)c(Cl)c1 [Example 333],EC50,[1],24.1 nM
CC[C@@]1(C)CN(c2cc(F)c(C(=O)N[C@@H](Cc3ccc(-c4c(C(F)(F)F)cc(C)n(C)c4=O)c4ncccc34)C(=O)O)c(F)c2)CCO1 [Example 445],EC50,[2],0.984 nM
CC[C@@H](Nc1cc(F)c(C(=O)N[C@@H](Cc2ccc(-c3c(C(F)(F)F)ccc4cccnc34)c3ncccc23)C(=O)O)c(F)c1)C(F)(F)F [Example 290],EC50,[1],6.5 nM
O=C(N[C@@H](Cc1ccc(-c2c(Cl)cc(F)cc2OC(F)F)c2ncccc12)C(=O)O)c1c(F)cccc1F [Example 149],EC50,[1],50.3 nM
"O=C(N[C@@H](Cc1ccc(-c2ccsc2)c2ncccc12)C(=O)O)c1c(F)cc(NS(=O)(=O)c2ccc(-c3ccnc(F)c3)cc2)cc1F [Example 52, (S)-2-(2,6-difluoro-4-((4-(2-fluoropyridin-4-yl)phenyl)sulfonamido)benzamido)-3-(8-(thiophen-3-yl)quinolin-5-yl)propanoic acid]",EC50,[3],91.5 nM
Cc1nc(C)c(-c2ccc(C[C@H](NC(=O)c3c(F)cc(N4CCOC[C@@H]4C(F)(F)F)cc3F)C(=O)O)c3cccnc23)nc1C [Example 274],EC50,[1],4.8 nM
Cn1c(=O)n(-c2ccc(C[C@H](NC(=O)c3c(F)cc(N4CCOC[C@@H]4C(F)(F)F)cc3F)C(=O)O)c3cccnc23)c(=O)c2ccncc21 [Example 474],EC50,[2],0.112 nM
CCOCc1cc(OC)c(-c2ccc(C[C@H](NC(=O)c3c(F)cc(NC(C)=O)cc3F)C(=O)O)c3cccnc23)c(OC)c1 [Example 329],EC50,[1],20.1 nM
N#Cc1ccc(-c2ccc(C[C@H](NC(=O)c3c(F)cc(NCC(F)(F)F)cc3F)C(=O)O)c3cccnc23)c(Cl)c1 [Example 332],EC50,[1],23.7 nM
"N#Cc1ccc(-c2ccc(C[C@H](NC(=O)c3c(F)cc(C(=O)Nc4ccccc4)cc3F)C(=O)O)c3cccnc23)c(Cl)c1 [Example 26, (S)-3-(8-(2-chloro-4-cyanophenyl)quinolin-5-yl)-2-(2,6-difluoro-4-(phenylcarbamoyl)benzamido)propanoic acid]",EC50,[3],32.8 nM
Cc1cc(-c2nccn2CC(F)(F)F)cc(F)c1C(=O)N[C@@H](Cc1ccc(-c2c(C(F)(F)F)cc(C)n(C)c2=O)c2ncccc12)C(=O)O [Example 435],EC50,[2],0.524 nM
"Cc1cc(N2CCOC[C@@H]2C(F)(F)F)cc(F)c1C(=O)N[C@@H](Cc1ccc(-c2c(C(F)(F)F)cc(C)n(C)c2=O)c2ncccc12)C(=O)O (atropisomer, axis not shown) [Example 461]",EC50,[2],0.093 nM
CC(C)c1cccnc1-c1ccc(C[C@H](NC(=O)c2c(F)cc(N3CCOC[C@@H]3C(F)(F)F)cc2F)C(=O)O)c2cccnc12 [Example 248],EC50,[1],3 nM
N#Cc1ccc(-c2ccc(C[C@H](NC(=O)c3c(F)cc(N4CCC(F)(F)CC4)cc3F)C(=O)O)c3cccnc23)c(Cl)c1 [Example 220],EC50,[1],45.2 nM
"Cc1cc(C(F)(F)F)c(-c2ccc(C[C@H](NC(=O)c3c(F)cc(N4CCCC[C@@H]4C(F)(F)F)cc3F)C(=O)O)c3cccnc23)c(=O)n1C (atropisomer, axis not shown) [Example 344]",EC50,[1],0.8 nM
Cn1ccc2c(Cl)c(C(=O)N[C@@H](Cc3ccc(-c4ccc(C#N)cc4Cl)c4ncccc34)C(=O)O)c(Cl)cc21 [Example 285],EC50,[1],46.2 nM
CC[C@@H](Nc1cc(F)c(C(=O)N[C@@H](Cc2ccc(-c3nc(C)c4ccc(F)cc4n3)c3ncccc23)C(=O)O)c(F)c1)C(F)(F)F [Example 258],EC50,[1],3.6 nM
N#Cc1ccc(-c2ccc(C[C@H](NC(=O)c3c(F)cc(NC(=O)c4ccccc4C(F)(F)F)cc3F)C(=O)O)c3cccnc23)c(Cl)c1 [Example 337],EC50,[1],26.2 nM

# — patent US11116760B2 (Gilead Sciences, Inc., priority 2018, dated 2021)
